# Where “and” joins values, the source holds several entries; their conditions need not be identical. Identical values can stand only once.
# T1: Pfu DNA polymerase (Pyrococcus furiosus, UniProt P61875)
# T1 sequence (P61875 1-775): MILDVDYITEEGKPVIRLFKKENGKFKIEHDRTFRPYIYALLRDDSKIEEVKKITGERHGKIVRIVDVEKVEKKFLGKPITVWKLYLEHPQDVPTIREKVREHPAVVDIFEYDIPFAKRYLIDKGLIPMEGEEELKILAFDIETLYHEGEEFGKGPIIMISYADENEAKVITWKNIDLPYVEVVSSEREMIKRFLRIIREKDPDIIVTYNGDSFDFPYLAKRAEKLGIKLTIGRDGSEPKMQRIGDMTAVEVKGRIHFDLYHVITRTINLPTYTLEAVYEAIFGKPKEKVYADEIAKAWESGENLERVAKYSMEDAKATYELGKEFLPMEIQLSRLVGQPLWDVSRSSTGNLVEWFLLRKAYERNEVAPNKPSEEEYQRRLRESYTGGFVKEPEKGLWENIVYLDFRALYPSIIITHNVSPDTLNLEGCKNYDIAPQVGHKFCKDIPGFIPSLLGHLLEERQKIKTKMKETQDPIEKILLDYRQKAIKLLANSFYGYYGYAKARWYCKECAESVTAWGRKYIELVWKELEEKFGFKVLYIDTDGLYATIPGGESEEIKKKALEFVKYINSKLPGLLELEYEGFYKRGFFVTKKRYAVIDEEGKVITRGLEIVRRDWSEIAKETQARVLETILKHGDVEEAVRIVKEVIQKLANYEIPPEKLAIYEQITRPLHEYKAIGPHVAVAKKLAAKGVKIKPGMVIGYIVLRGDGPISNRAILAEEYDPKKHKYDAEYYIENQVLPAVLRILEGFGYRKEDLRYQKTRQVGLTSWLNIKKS
# Assays:
# [1] = PCR cycling of dCTP alone, HPLC; assay type: physicochemical; settings: 30 cycles
# Description: FIG. 20. Reverse phase HPLC analysis of the products generated by PCR cycling dCTP. dCTP (10 mM in cloned Pfu DNA polymerase PCR buffer) was cycled alone (Panel A) or in the presence of 0.5 ng/μl PEF (Panel 8) or 1.25 U/μl Pfu DNA polymerase (Panel C). Cycling was carried out in a RoboCycler 40 using the following conditions: 95° C. 1 min./30 cycles of: 95° C. 1 min., 60° C. 1 min., 72° C. 10:24 min./72° C. 10 min. 10 μl of the reaction mixtures were chromatographed as described in the FIG. 18 legend. In panel D, the absorbance spectra of dCTP, dUTP, and the product generated from PCR cycling dCTP are compared. The absorbance spectra (200-300 nm) of the following were superimposed: (1) major peak at 8.3-8.8 min. from chromatogram of dCTP+Pfu unheated; (2) peak at 11.867 min. from chromatogram of dUTP in buffer unheated; (3) peak 12.150 from chromatogram C (FIG. 20) showing dCTP+Pfu cycled.
# dUTP production was also measured during PCR cycling. A dCTP solution (10 mM dCTP in cloned Pfu DNA polymerase PCR buffer) was subject to PCR cycling in a RoboCycler 40 using the cycling conditions described for the 5.2 kb “on/off” system (example 1). Products generated during PCR were analyzed by HPLC as described above. After 30 cycles, the following products were evident: 79% dCTP, 19% dCDP, 1.8% dCMP, and 0.064% dUTP (FIG. 20, panel A). […] When dCTP was cycled in the presence of Pfu DNA polymerase (50×PCR conditions, 10 mM dCTP and 1.25 U Pfu/μl reaction mix) there was no difference in the amount of dCDP, dCMP, or dUTP produced (FIG. 20, panel C). However, when dCTP was cycled in the presence of PEF (50×PCR conditions, 10 mM dCTP and 0.5 ng PEF/μl reaction mix), the following products were produced: 73% dCTP, 19% dCDP, and 8% dCMP (FIG. 20, panel B).
# [2] = Heat treatment of dCTP at 95° C., reverse phase HPLC; assay type: physicochemical
# Description: FIG. 18. Reverse phase HPLC analysis of the products generated by heat-treatment of dCTP. dCTP (10 mM in cloned Pfu DNA polymerase PCR buffer) was heated at 95° C. in thin-walled tubes in a RoboCycler 40 temperature gradient block. Incubations were carried out for the following length of time: 0 (panel A), 1 hour (panel 6), or 4 hours (panel C). 10 μl of the reaction mixtures were loaded onto a Waters Delta-pak C18 column (300 angstrom/15 μm), equilibrated in 50 mM triethylammonium acetate, pH (7.0) (A). Products were eluted with acetonitrile (B) at 2 ml/min., using the following gradient: 0% B for 5 minutes, 0-10% B over 20 minutes. Absorbence of the eluate was monitored with a photodiode array detector, and peak areas were integrated at 260 nm. To the right of panels A and C are shown the same chromatograms re-integrated at a higher sensitivity. In panel D, 10 μl of 10 mM dUTP (in cloned Pfu DNA polymerase PCR buffer) was chromatographed.
# dUTP, however, is not intentionally added to PCR reactions but may be generated by spontaneous deamination of dCTP during the high temperatures used in PCR cycling (Jens-Peter Horst and Hans-Joachim Fritz. (1996) The EMBO Journal 15; 5459-5469). To assess the extent of dCTP deamination to dUTP during PCR, we incubated dCTP (10 mM) at 95° C. (PCR denaturation temperature) in the presence of cloned Pfu DNA polymerase PCR buffer. The products of heat treatment were analyzed by reverse phase-HPLC (as described above) and peak assignments were made by comparing retention times to those of standards. […] A minor peak at 12.38 minutes was also produced (0.049%/1 hr.; 0.116%/4 hr.), which was identified as dUTP, based upon its retention time (dUTP standard=12.10 minutes; panel D) and absorbence maximum.
# Pfu DNA polymerase [3] = target: T1, Pfu DNA polymerase; assay: 0.9 kb α1-antitrypsin PCR in absence or presence of dUTP; assay type: biochemical
# Description: A relatively small (0.9 kb) fragment of the human α1-antitrypsin gene was amplified in the absence or presence of dUTP. PCR reaction mixtures contained the following (in a 100 μl volume): 1× Cloned Pfu polymerase buffer; 200 μM each, dCTP, dGTP, dATP; 200 ng oligo F91-23 (100 ng/μl); 200 ng oligo R980-23 (100 ng/μl); 125 ng Human genomic DNA; 2.5 units Pfu DNA polymerase; 200 μM total of (dTTP and dUTP) or (dTTP+PEF generated dUMP).
# PCR cycling was carried out as follows: 95° C. for 1 minute (1 cycle); 95° C. for 1 minute—58° C. for 1 minute—72° C. for 2 minutes (30 cycles).
# Seven ng of PEF can reverse the inhibition caused by as much as 20 μM dUTP (data not shown). The preferred amount of PEF or P45 used in a particular reaction can be optimized according to the principles provided here or by methods for quantifying amplification reactions known in the art.
# Pfu DNA polymerase [4] = target: T1, Pfu DNA polymerase; assay: 0.9 kb α1-antitrypsin PCR with unrelated dU-containing or control oligonucleotide; assay type: biochemical; settings: per 100 ul reaction
# [5] = Reverse phase HPLC analysis of dCTP conversion; assay type: biochemical
# Description: The similarity of P45 to dCTP deaminases prompted us to test whether dCTP or other nucleotide triphosphates were substrates of PEF/P45. PEF was incubated with dCTP or dUTP and the reaction products were separated by reverse phase HPLC. Reaction mixtures (50 μl) containing 1× cloned Pfu polymerase buffer, 10 mM dCTP or dUTP, and 700 ng PEF (or 5 μl of cloned p45 (˜100 ng) or nothing (neg. control)) were incubated at 72° C. for 1 hour. The samples were injected on a […] Waters Delta-pak C-18 column (300 angstrom/15 μm), equilibrated in 50 mM triethylammonium acetate, pH (7.0) (A). Products were eluted with acetonitrile (B) at 2 ml/min. using the following gradient: 0% B for 5 minutes, 0-10% B over 20 minutes. Absorbence of the eluate was monitored with a photodiode array detector, and peak areas were integrated at 260 nm.
molecule,measurement,setting,value
Nc1ccn([C@H]2C[C@H](O)[C@@H](COP(=O)(O)OP(=O)(O)OP(=O)(O)O)O2)c(=O)n1 [dCTP],dCDP after PCR cycling,[1],19%
same,dCMP after PCR cycling,[1],1.8%
same,dCTP after PCR cycling,[1],79%
same,dUTP after PCR cycling,[1],0.064%
same,dCMP formed from dCTP,[2]; 1 hr,2.8%
same,dUTP formed from dCTP (12.38 minute peak),[2]; 1 hr,0.049%
same,dCDP formed from dCTP,"[2]; 1 hr, 10 mM in cloned Pfu PCR buffer",22%
same,dCDP formed from dCTP,[2]; 4 hr,41%
same,dCMP formed from dCTP,[2]; 4 hr,25%
same,dUTP formed from dCTP (12.38 minute peak),[2]; 4 hr,0.116%
O=c1ccn([C@H]2C[C@H](O)[C@@H](COP(=O)(O)O)O2)c(=O)[nH]1 [dUMP],inhibition of Pfu polymerase-based PCR,Pfu DNA polymerase [3]; at concentrations of 20 μM,not inhibitory
"O=c1ccn([C@H]2C[C@H](O)[C@@H](COP(=O)(O)OP(=O)(O)OP(=O)(O)O)O2)c(=O)[nH]1 [dUTP, deoxyuracil triphosphate]",dUTP concentration partially inhibiting amplification of the 900 bp product,Pfu DNA polymerase [3]; 0.1% of the dTTP+dUTP pool,0.2 µM
same,dUTP concentration completely inhibiting amplification of the 900 bp product,"Pfu DNA polymerase [3]; as low as, 1% of the dTTP+dUTP pool",2 µM
"control oligonucleotide: control oligo with dT rather than dU (SEQ ID NO: 86) (GGTTTTCCCAGTCACGACGTTGTAAAACGACGGCCAGT; DNA, backbone not given here)",amount of oligo showing inhibition of the Pfu-based PCR,Pfu DNA polymerase [4],16 pmol and 8 pmol
"dU oligo: unrelated primer complementary to M13 DNA containing 9 dUs instead of dTs (SEQ ID NO: 87) (GGUUUUCCCAGUCACGACGUUGUAAAACGACGGCCAGU; DNA, backbone, methylation of C and T or U not given here; further chemistry not fully specified)",amount of oligo showing inhibition of the Pfu-based PCR,Pfu DNA polymerase [4],0.8 pmol
"P45: 45 kD component of the Pfu PEF complex, functions as a dUTPase (SEQ ID NO.: 71) (protein, listed as Pyrococcus furiosus) MLLPDWKIRKEILIEPFSEESLQPAGYDLRVGREAFVKGKLIDVEKEGKVVIPPREYALILTLERIKLPDDVMGDMKIRSSLAREGVIGSFAWVDPGWDGNLTLMLYNASNEPVELRYGERFVQIAFIRLEGPARNPYRGNYQGSTRLAFSKRKKL",deamination of dCTP,[5],No deamination

# — patent publication US7943358B2, “Polymerase enhancing factor (PEF) extracts, PEF protein complexes, isolated PEF protein, and methods for purifying and identifying” (Agilent Technologies, Inc., priority 1997, dated 2011)
